We go through four compounds from paper PMC2937023, “Molecular Decoy to the Y-Box Binding Protein-1 Suppresses the Growth of Breast and Prostate Cancer Cells whilst Sparing Normal Cell Viability” (PLoS ONE, 2010).

Ends that are not written are not given here.

The test system of series [1] is SUM149 cells. Briefly: Monolayer growth assay, SUM149. The conditions noted are these: SUM149, 72 h, 0–50 µM scrambled peptide, MTS. It counts as cell-based, human.
Protocol: (§3) For monolayer assays, cells were plated at 5000 cells per well in a 96 well plate. The following day cells were treated with diluent, 0–50 µM of scrambled peptide, or 0–50 µM CPP. The BT474, BT474-m1, HR5 and HR6 cells were also tested in combination with trastuzumab (BC Cancer Agency pharmacy, Vancouver, BC) at 20 µg/mL. […] Growth was shown as a percentage of diluent control and changes in growth were considered significant at P<0.01.
For series [2], the system named is EpCAM^+ primary normal human breast epithelial cells. Briefly: Normal mammary epithelial cells assay, colony-forming cell (CFC) assay. The following applies: cells from two patients, 6 or 25 µM for 48 hours, colonies counted 7 days post-seeding. The format is cell-based. Here is the method:
EpCAM^+ primary normal human breast epithelial cells from two patients were obtained, prepared, and isolated as previously described, [36]. In all subsequent experiments, the primary epithelial cells were grown in Epicult-B media (StemCell Technologies, Vancouver, BC) supplemented with 5% fetal calf serum. For the colony-forming cell (CFC) assay, EpCAM^+ cells from each patient were first seeded at 7000 cells/well into a 96 well plate and treated the following day with either diluent, scrambled peptide (6 or 25 µM), or CPP (6 or 25 µM) in triplicate wells for 48 hours. Following this peptide incubation, cells were harvested with trypsin, a single cell suspension was generated, and cells were seeded into the CFC assay as previously described, [37]. Colonies were counted 7 days post-seeding.

For series [3] the test system is unchanged. The series is described as follows: Normal mammary epithelial cells assay, MTS growth. It counts as cell-based. The following applies: cells from reduction mammoplasties of two patients, 6 or 25 µM, 72 h.
In series [4] the test system is 184htert cells. The series is described as follows: Monolayer growth assay, normal immortalized mammary epithelial cells. The format is cell-based, human. The following applies: 72 h, MTS proliferation assay, 0–50 µM.
Protocol: For monolayer assays, cells were plated at 5000 cells per well in a 96 well plate. The following day cells were treated with diluent, 0–50 µM of scrambled peptide, or 0–50 µM CPP. […] Growth was shown as a percentage of diluent control and changes in growth were considered significant at P<0.01.
The subject of series [5] is YB-1 binding to the EGFR promoter. The series is described as follows: Electrophoretic mobility shift assay (gel shift), SUM149 nuclear extracts. The format is biochemical, human. The conditions noted are these: SUM149 nuclear protein 5 µg pre-incubated 20 min with 25 µM peptide, EGFR2a oligonucleotides. As to the method: The gel shift assay was performed using EGFR2a oligonucleotides as previously described. Briefly, SUM149 cells were harvested and cytoplasmic/nuclear fractions were obtained using the NE-PER kit followed by EMSA using the Lightshift Chemiluminescent EMSA kit (both kits from Pierce Biotechnology, Rockford, IL). Nuclear extracts were confirmed to contain RSK and YB-1 by immunoblotting. Nuclear protein (5 µg) was pre-incubated for 20 min with unlabeled oligonucleotide plus acetic acid control, scrambled peptide (25 µM), or CPP (25 µM or 50 µM) prior to the addition of biotin-labeled oligonucleotide. Chicken anti-YB-1 (1 µg) was used as positive control. Reactions were run on a non-denaturing polyacrylamide gel, transferred to a nylon membrane, cross-linked at 120 mJ/cm^2 using a Stratalinker (Stratagene, La Jolla, CA) and visualized with chemiluminescence (Pierce Biotechnology).
For orientation: A gel shift assay detects complexes by their altered migration in electrophoresis.

Series [6] concerns BT474-m1 cells. Briefly: Monolayer growth assay, BT474-m1, with or without trastuzumab. The format is cell-based, human. The following applies: 72 h, MTS.
Protocol: as §3
The subject of series [7] is HER-2. Briefly: Immunoblotting of HER-2 protein in AU565 cells. The format is cell-based, human. The following applies: 72 h, western blot. Here is the method: (§1) Cell lines used herein were evaluated for YB-1, the activating kinases RSK and AKT, and the downstream targets EGFR and HER-2. […] Proteins were extracted using ELB plus protease and phosphatase inhibitors and western blotting was performed as previously described. The following antibodies were used to detect proteins by immunoblotting (unless otherwise indicated, all antibodies were from Cell Signaling Technology, Danvers, MA): P-YB-1^S102 (1/500), YB-1 (1/2000, Abcam, Cambridge, MA), EGFR (1/5000, Stressgen, San Diego, CA), P-p90RSK^S380 (1/500), RSK1/RSK2/RSK3 (1/1000), HER-2 (1/1000, Abcam), AKT (1/1000), creb (1/1000), pan-actin (1/1000), vinculin (1/1000). Blots were quantified using ImageJ software.
Background: Immunoblotting shows a protein as a band on a membrane.

Series [8] relates to EGFR. The series is described as follows: Real-time quantitative RT-PCR of EGFR transcript in SUM149 cells. It counts as cell-based, human. The conditions noted are these: 50 µM CPP, 24 h, qRT-PCR. Here is the method: (§2) RNA was isolated from log growing AU565 and SUM149 cells treated with 50 µM scrambled CPP or 50 µM CPP for 24 h using the RNeasy Mini kit from Qiagen (Mississauga, ON). The RNA was reverse transcribed and amplified using HER-2 (for AU565 cells) or EGFR (for SUM149 and AU565 cells) specific primers and probes (Applied Biosystems, Foster City, CA). 18S mRNA was quantified as a housekeeping gene (Applied Biosystems).
Background: In qPCR the cycle at which signal appears reflects the starting amount.

Series [9] relates to EGFR. The series is described as follows: Immunoblotting of EGFR protein in SUM149 cells. The conditions noted are these: 72 h, western blot. The format is cell-based, human. As to the method:
as §1

Series [10] concerns P-YB-1^S102. The series is described as follows: Immunoblotting of P-YB-1^S102 in SUM149 cells. The format is cell-based, human. Here is the method:
as §1

The test system of series [11] is HR5 cells. The series is described as follows: Monolayer growth assay, HR5 (trastuzumab resistant), with or without trastuzumab. The format is cell-based, human. The following applies: 72 h, MTS.
Protocol: as §3
In series [12] the test system is P-YB-1^S102. Briefly: Immunoblotting of P-YB-1^S102 in AU565 cells. The format is cell-based, human. The conditions noted are these: 12.5–50 µM CPP, 72 h, western blot. Here is the method: as §1
Series [13] has as its system HR6 cells. The series is described as follows: Monolayer growth assay, HR6 (trastuzumab resistant), with or without trastuzumab. The conditions noted are these: 72 h, MTS. It counts as cell-based, human.
Protocol: as §3
Series [14] relates to EGFR. The series is described as follows: Real-time quantitative RT-PCR of EGFR transcript in AU565 cells. It counts as cell-based, human. The following applies: 50 µM CPP, 24 h, qRT-PCR, 18S housekeeping. Here is the method: as §2
In series [15] the test system is HER-2. Briefly: Real-time quantitative RT-PCR of HER-2 transcript in AU565 cells. The format is cell-based, human. The conditions noted are these: 50 µM CPP, 24 h, qRT-PCR, 18S housekeeping. Here is the method: as §2
The test system of series [16] is EGFR. The series is described as follows: Immunoblotting of EGFR protein in AU565 cells. The format is cell-based, human. The conditions noted are these: 72 h, western blot. As to the method:
as §1

For series [17], the system named is P-YB-1^S102. Briefly: Immunoblotting of P-YB-1^S102 in LNCap cells. The format is cell-based, human. The following applies: 12.5–50 µM CPP, 72 h, western blot. As to the method: as §1
The subject of series [18] is BT474 cells. The series is described as follows: Monolayer growth assay, BT474, with or without trastuzumab. The conditions noted are these: 72 h, MTS. The format is cell-based, human.
Protocol: as §3
Series [19] relates to YB-1 binding to the EGFR promoter. The following applies: previous work; cited from earlier work. Here is the method: After 72 h, the CPP reduced HER-2 and EGFR protein levels in AU565 cells (Figure 3A). […] Further, in SUM149 cells, EGFR protein and mRNA levels were decreased (Figure 3C-D).

For the compound RALKYGVRP [scrambled peptide], the effect on growth result in series [1] is reported as “no effect”. In addition, the “growth of normal breast epithelial cells (CFC output)” value in series [2] is recorded as “neither the scrambled peptide nor the CPP had any growth effect”. For the same compound, in [3], the “growth of normal breast epithelial cells (MTS)” value is “neither the scrambled peptide nor the CPP had any growth effect”. Moreover, in series [4], the “growth of normal human mammary epithelial cells” value was “neither the scrambled control peptide nor the CPP inhibited growth”. For the same compound, the “YB-1 binding to the EGFR promoter (gel shift)” value in series [5] is “bound with high affinity”.
Take RQIKIWFQNRRMKWKKPRKYLRSVG-OH [CPP]: the sensitivity to trastuzumab entry was “increased the sensitivity” in [6] (BT474-m1, CPP 12.5 or 50 µM with trastuzumab 20 µg/ml); “overcome drug insensitivity” in [11] (HR5, CPP with trastuzumab 20 µg/ml); “overcome drug insensitivity” in [13] (HR6, CPP with trastuzumab 20 µg/ml); “increased the sensitivity” in [18] (BT474, CPP 12.5 or 50 µM with trastuzumab 20 µg/ml). In addition, the “growth, CPP alone” value is “suppressed the growth” in series [6] (BT474-m1, CPP 12.5 or 50 µM) and “suppressed the growth” in [18] (BT474, CPP 12.5 or 50 µM). Further, the HER-2 protein level entry in series [7] is “reduced”. Further, the “EGFR mRNA level” value in series [8] is reported as “decreased”. Also, the EGFR protein level entry in [9] is “decreased”; in series [16], “reduced”. The “phosphorylation of YB-1^S102” value in [10] (12.5–50 µM CPP, 72 h, western blot) is given as “decreased phosphorylation”; in series [12], “decreased phosphorylation”; in [17], “decreased phosphorylation”. Also, in [10] (1 h, western blot quantified using ImageJ, relative P-YB-1:YB-1), the “decrease of P-YB-1^S102” value turned out to be 32%. Further, the “growth, CPP” value in [11] (HR5 trastuzumab resistant cells) and in series [13] (HR6 trastuzumab resistant cells) was “significantly suppress growth” each time. For the same compound, the “reduction of EGFR transcript level” value in series [14] is reported as about 50%. Besides, in series [15], the “reduction of HER-2 transcript level” value is given as about 50%. In series [5], the “YB-1 binding to the EGFR promoter (gel shift)” value is given as “blocked binding”.
Turning to `CC(=O)O[C@@H]1[C@@H](OC(C)=O)[C@@H](O)[C@H](Oc2c(-c3ccc(O)cc3)oc3cc(O)cc(O)c3c2=O)O[C@H]1C` [SL0101], in [19], the “YB-1 binding to the EGFR promoter” value was “reverse YB-1 binding”.
Regarding `COc1cccc(-c2cc(=O)c3ccccc3o2)c1N` [PD098059], the “YB-1 binding to the EGFR promoter” value in [19] is on record as “reverse YB-1 binding”.
